The text below walks through data of patent publication US20170022201A1, “MACROCYLIC PYRIDINE DERIVATIVES” (Janssen Pharmaceutica NV, priority 2014, published 2017).

Experiment [1] has as its target T1, EF2K (Homo sapiens, UniProt O00418).
T1 construct: host or cells: LN-229 glioblastoma cell lysate
T1 sequence (O00418 1-725): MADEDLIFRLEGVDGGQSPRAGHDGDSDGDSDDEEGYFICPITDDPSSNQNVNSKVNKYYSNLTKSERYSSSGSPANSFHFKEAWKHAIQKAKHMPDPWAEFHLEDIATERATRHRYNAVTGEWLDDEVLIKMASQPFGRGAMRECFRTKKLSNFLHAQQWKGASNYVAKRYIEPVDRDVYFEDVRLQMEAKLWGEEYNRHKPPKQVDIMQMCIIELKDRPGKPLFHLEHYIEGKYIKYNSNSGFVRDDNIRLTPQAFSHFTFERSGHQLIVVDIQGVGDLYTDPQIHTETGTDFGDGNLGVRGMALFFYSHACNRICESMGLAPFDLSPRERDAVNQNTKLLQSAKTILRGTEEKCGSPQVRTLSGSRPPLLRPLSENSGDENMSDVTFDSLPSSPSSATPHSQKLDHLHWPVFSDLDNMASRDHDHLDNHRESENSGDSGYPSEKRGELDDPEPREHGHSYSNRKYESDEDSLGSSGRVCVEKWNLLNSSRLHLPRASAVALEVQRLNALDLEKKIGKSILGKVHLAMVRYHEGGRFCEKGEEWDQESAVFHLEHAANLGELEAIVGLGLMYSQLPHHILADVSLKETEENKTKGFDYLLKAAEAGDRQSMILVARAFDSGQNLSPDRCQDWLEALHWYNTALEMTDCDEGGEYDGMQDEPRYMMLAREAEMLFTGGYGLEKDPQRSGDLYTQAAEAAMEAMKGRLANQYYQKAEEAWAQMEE
As to the kind of experiment: Biochemical EF2K lysate-based kinase assay (AlphaLISA p-eEF2 Thr56). The settings on record: LN-229 cell lysates, 10 mM ATP, pH 6.6; pIC50 = -log IC50 (M); read-out: eEF2K_C_alphalisa pIC50 (converted). An excerpt:
LN-229 cells were purchased from ATCC (CRL-2611); these are glioblastoma cells. Cell lysates from LN229 were used in this kinase assay to provide both the kinase and the substrate (EF2). The AlphaLISA p-eEF2 (Thr56) detection assay was developed using a sandwich assay format with two specific antibodies recognizing different epitopes of the target, including one antibody against the phosphorylation site of interest. One anti-eEF2 antibody was conjugated onto AlphaLISA Acceptor beads, while the second antibody was biotinylated and captured by streptavidin coated Donor beads.
Compound was mixed with LN-229 cell lysates in the presence of a kinase buffer (e.g. HEPES) at a pH of 6.6, containing 10 mM Mg^2+ (e.g. magnesium acetate) and 10 mM adenosine-tri-phosphate (ATP) and incubated at room temperature for 15 minutes. The kinase reaction was stopped with excess ethylenediaminetetraacetic acid disodium salt and the biotinylated-anti phospho eEF2 antibody (3 nM) was added for 1 hour. Then the anti-EF2 acceptor beads (10 μg/ml) as well as the streptavidin coated donor beads (20 μg/ml) were added for 1 hour, and the AlphaLISA signal was measured in an Envision instrument once, left overnight, and measured again for the final read.
In general terms: Bead proximity is the source of the signal in Alpha formats.

Experiment [2] deals with T2, eEF2K (Homo sapiens, UniProt O00418).
T2 construct: in the immortalized epithelial breast cell lines, MCF10A; host or cells: MCF10A immortalized breast epithelial cells
T2 sequence (O00418 1-725): T1 sequence (O00418 1-725)
As to the kind of experiment: EF2K cell-based assay (P-EF2 AlphaLISA, 2-deoxyglucose stimulated MCF10A cells). The settings on record: 2.5 mM 2-deoxyglucose 4 h, phosphorylation of EF2 at Thr 56, pIC50 = -log IC50 (M); for IC50: read-out: eEF2K_C_PThr56 pIC50 (converted). The method, then:
In this assay, 2.5 mM 2-deoxyglucose was used to deplete intracellular ATP and activate 5′ adenosine monophosphate-activated protein kinase (AMPK) in the immortalized epithelial breast cell lines, MCF10A. MCF 10A cells were purchased from ATCC (CRL-10317).
MCF10A cells are seeded at a density of 1.25×10^5 Cells/ml at 100 μl/well in a 96-well plate and incubated for 24 hours (37° C., 5% CO2). Compound is added for 1 hour, and cell are stimulated with 2.5 mM of 2-deoxy-glucose for 4 hours. Medium is then removed, and cells are lysed in an ice-cold buffer M-PER (Thermo Scientific, 78501), containing protease and phosphatase inhibitors. P-EF2 levels are determined in these lysates using the P-EF2 AlphaLISA described above.

Experiment [3] has as its target PIK3C3 lipid kinase (Homo sapiens, UniProt Q8NEB9). As to the kind of experiment: Biochemical Vps34 lipid kinase assay (ADP-Glo). The settings on record: 20 μM ATP; for IC50: serial dilution 10 μM to 0.3 nM, pIC50 = -log IC50 (M); for remaining activity at 1 µM: 1 h, read-out: VPS34_1microM_%ofcntrl; for remaining activity at 1 µM / VPS34_1microM_%ofcntrl: single dose 1 μM, residual activity compared to control (DMSO). The method, then: A non-radiometric kinase assay (ADP-Glo™ Assay, Promega, Madison, Wi, USA) was used for measuring the kinase activity of the PIK3C3 lipid kinase. All kinase assays were performed in 96-well half-area microtiter plates in a 25 μl reaction volume. The reaction cocktail was pipetted in 3 steps in the following order: • 10 μl of ATP solution (in assay buffer, see below) • 5 μl of test sample in 5% DMSO 10 μl of enzyme/substrate mixture
All lipid kinase assays contained 50 mM HEPES (4-(2-hydroxyethyl)-1-piperazineethanesulfonic acid)—NaOH, pH 7.5, 1 mM EGTA ((ethylene glycol tetraacetic acid), 100 mM NaCl, 0.03% CHAPS (3-[(3-Cholamidopropyl) dimethylammonio]-1-propanesulfonate), 2 mM DTT (Dithiothreitol), 20 μM ATP (corresponding to the apparent ATP-Km), kinase (7.6 nM) and substrate (50 μM). The assay for PIK3C3 additionally contained 3 mM MnCl2.
The reaction cocktails were incubated at 30° C. for 60 minutes. The reaction was stopped with 25 μl ADP-Glo™ reagent per well. Plates were incubated for 40 minutes at room temperature, followed by addition of 50 μl kinase detection reagent per well and incubation for 60 minutes at room temperature. Signal was determined with a microplate luminescence reader (Victor, Perkin Elmer). The assay was either performed using a single dose of compound (1 μM final concentration in the assay reaction) with resulting data expressed as residual activity compared to control (DMSO), or using a serial (half-log) dilution of compounds starting at 10 μM and down to 0.3 nM (final concentrations in the assay) with data expressed as the pIC50.

Chain of PIK3C3 lipid kinase (Q8NEB9 whole entry): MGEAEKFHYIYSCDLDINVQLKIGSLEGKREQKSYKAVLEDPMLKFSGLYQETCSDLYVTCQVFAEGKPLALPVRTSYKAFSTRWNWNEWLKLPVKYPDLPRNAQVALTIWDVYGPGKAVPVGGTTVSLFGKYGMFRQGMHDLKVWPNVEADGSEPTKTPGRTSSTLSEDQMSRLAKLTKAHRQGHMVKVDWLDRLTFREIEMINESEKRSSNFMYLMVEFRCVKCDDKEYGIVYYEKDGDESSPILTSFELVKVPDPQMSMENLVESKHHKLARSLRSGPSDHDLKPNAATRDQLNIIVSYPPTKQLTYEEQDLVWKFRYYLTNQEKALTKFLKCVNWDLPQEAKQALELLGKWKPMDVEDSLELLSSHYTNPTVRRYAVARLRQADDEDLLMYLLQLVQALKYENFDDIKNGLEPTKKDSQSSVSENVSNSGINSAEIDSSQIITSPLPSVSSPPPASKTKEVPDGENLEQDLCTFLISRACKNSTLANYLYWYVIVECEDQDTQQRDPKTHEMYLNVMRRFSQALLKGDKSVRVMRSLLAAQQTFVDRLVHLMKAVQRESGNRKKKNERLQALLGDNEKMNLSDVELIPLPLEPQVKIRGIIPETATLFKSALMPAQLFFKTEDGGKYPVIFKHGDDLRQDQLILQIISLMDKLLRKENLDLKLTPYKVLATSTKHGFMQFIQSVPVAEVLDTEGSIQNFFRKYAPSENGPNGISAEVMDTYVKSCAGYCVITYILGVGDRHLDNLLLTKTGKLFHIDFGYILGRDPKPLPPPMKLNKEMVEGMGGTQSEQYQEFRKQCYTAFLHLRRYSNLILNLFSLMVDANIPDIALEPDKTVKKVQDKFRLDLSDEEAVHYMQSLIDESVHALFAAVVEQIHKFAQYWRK

Regarding `O=C1NCCCNc2ncc(cn2)-c2ccnc(c2)Nc2cccc(c2)CN2CCN(CC2)C1CO` (single isomer, unassigned) [Compound 2], the IC50 in experiment [1] is 4.79e-08 M; in experiment [2], around 2.51e-06 M; in experiment [3] it was 5.5e-07 M.

In the case of `O=C1NCCCNc2ncc(cn2)-c2ccnc(c2)Nc2cccc(c2)CN2CCN(CC2)C1CO` (single isomer, unassigned) [Compound 3], the IC50 in experiment [1] is 1.55e-07 M; in experiment [2], 5.75e-06 M; in experiment [3], 2.29e-07 M. The remaining activity at 1 µM in experiment [3] came out at 15.3%.

For `COCC1C(=O)NCCCNc2ncc(cn2)-c2ccnc(c2)Nc2cccc(c2)CN2CCN1CC2` (single isomer, unassigned) [Compound 5], the IC50 in experiment [1] is 1.12e-07 M; in experiment [2] it was 2.51e-06 M; in experiment [3] it was 4.47e-07 M. The remaining activity at 1 µM in experiment [3] came out at 22.4%.

For the molecule `COCC1C(=O)NCCCNc2ncc(cn2)-c2ccnc(c2)Nc2cccc(c2)CN2CCN1CC2` (single isomer, unassigned) [Compound 6], the IC50 was 4.47e-08 M in experiment [1], 1.12e-06 M in experiment [2] and 7.59e-07 M in experiment [3].

Take `O=C1CN2CCN(Cc3cccc(c3)Nc3cc(ccn3)-c3cnc(nc3)NCCCN1)C(CO)C2` (single isomer, unassigned) [Compound 8]: the IC50 in experiment [1] was 4.17e-08 M; in experiment [2] it was 2.57e-06 M; in experiment [3], 1.66e-07 M. Also, the VPS34_1microM_%ofcntrl in experiment [3] worked out at 9.64%.

Consider `CC1c2cccc(c2)Nc2cc(ccn2)-c2cnc(nc2)NCCCNC(=O)C2(CC2)N2CCN1CC2` (single isomer, unassigned) [Compound 23], for which the IC50 in experiment [1] is 9.55e-08 M; in experiment [2] it was around 2.95e-06 M; in experiment [3] it was 1.74e-06 M.

`O=C1CN2CC3CCC2CN3Cc2cccc(c2)Nc2cc(ccn2)-c2cnc(nc2)NCCCN1` (single isomer, unassigned) [Compound 25]: the IC50 in experiment [1] was 2.34e-06 M; in experiment [2], above 1e-05 M; in experiment [3], 6.03e-07 M.

Consider `O=C1CN2CC3CCC2CN3Cc2cccc(c2)Nc2cc(ccn2)-c2cnc(nc2)NCCCN1` (single isomer, unassigned) [Compound 26], for which the IC50 in experiment [1] was 1.07e-06 M; in experiment [3], 6.61e-08 M. Moreover, the “eEF2K_C_PThr56 pIC50” value in experiment [2] is given as below 5. In addition, in experiment [3], the remaining activity at 1 µM came out at 4.67%.

Regarding `CC1c2cccc(c2)Nc2cc(ccn2)-c2cnc(nc2)N2CC(O)CC2CCNC(=O)C2(CC2)N2CCN1CC2` (single isomer, unassigned) [Compound 65], the results for the IC50 in experiment [1], in experiment [2] and in experiment [3] were 5.62e-09 M, 3.8e-07 M and 1.95e-07 M, respectively.

Turning to `CC1c2cccc(c2)Nc2cc(ccn2)-c2cnc(nc2)N2CC(O)CC2CCNC(=O)C2(CC2)N2CCN1CC2` (single isomer, unassigned) [Compound 66], the IC50 is 6.17e-08 M in experiment [1], 9.12e-07 M in experiment [2] and 1.12e-06 M in experiment [3].

For the molecule `COC(=O)C1CCNC(=O)CN2CCN(CC2)Cc2cccc(c2)Nc2cc(ccn2)-c2cnc(nc2)N1` (single isomer, unassigned) [Compound 118], the IC50 in experiment [1] was 3.09e-07 M; in experiment [2], 1.55e-05 M. The remaining activity at 1 µM in experiment [3] was 70.6%.

Take `CNC(=O)C1CCNC(=O)CN2CCN(CC2)Cc2cccc(c2)Nc2cc(ccn2)-c2cnc(nc2)N1` (single isomer, unassigned) [Compound 124]: the IC50 is 3.98e-07 M in experiment [1] and around 2.51e-05 M in experiment [2]. In experiment [3], the remaining activity at 1 µM came out at 65.5%.

`O=C1CN2CCN(CC2)Cc2cccc(c2)Nc2cc(ccn2)-c2ccc(nc2)N2CCCC2CCN1` (single isomer, unassigned) [Compound 142]: the IC50 in experiment [1] is 3.55e-08 M; in experiment [2] it was 1.58e-06 M. Moreover, in experiment [3], the remaining activity at 1 µM is 40%.

`O=C1CN2CCN(CC2)Cc2cccc(c2)Nc2cc(ccn2)-c2ccc(nc2)N2CCCC2CCN1` (single isomer, unassigned) [Compound 143]: the IC50 in experiment [1] was 1.38e-05 M; in experiment [2], above 3.02e-05 M; in experiment [3], 2.14e-06 M.

With `O=C1CN2CCN(CC2)Cc2cccc(c2F)Nc2cc(ccn2)-c2cnc(nc2)NCCCN1` [Compound 1], the results for the IC50 in experiment [1], in experiment [2] and in experiment [3] were 1.05e-08 M, 3.63e-07 M and 4.9e-08 M, respectively.

For `CNC(=O)c1ccc2cc1CN1CCN(CC1)CC(=O)NCCCNc1ncc(cn1)-c1ccnc(c1)N2` [Compound 9], the figures for the IC50 in experiment [1], in experiment [2] and in experiment [3] were 3.47e-08 M, around 5.5e-06 M and 1.66e-07 M, respectively. Further, in experiment [3], the remaining activity at 1 µM came out at 7.1%.

On to `O=C1NCCCNc2ncc(cn2)-c2ccnc(c2)Nc2cccc(c2)CN2CCN(CC2)C12COC2` [Compound 10], for which the IC50 is 2.19e-08 M in experiment [1], 1.48e-06 M in experiment [2] and 4.57e-07 M in experiment [3]. Also, the remaining activity at 1 µM in experiment [3] worked out at 18.6%.

As for `CN1CCCNc2ncc(cn2)-c2ccnc(c2)Nc2cccc(c2)CN2CCN(CC2)CC1=O` [Compound 13], the IC50 in experiment [1] is 6.46e-07 M; in experiment [2], 9.12e-06 M. Moreover, the remaining activity at 1 µM in experiment [3] is 34.9%.

With `NCCCOCC1CN2CCN1Cc1cccc(c1)Nc1cc(ccn1)-c1cnc(nc1)NCCCNC(=O)C2` (stereo not shown) [Compound 114], the IC50 in experiment [2] was above 1e-05 M. In experiment [3], this molecule showed an IC50 of 5.13e-07 M and a VPS34_1microM_%ofcntrl of 29.15%.

Consider `CCCN1CCNC(=O)CN2CCN(CC2)Cc2cccc(c2)Nc2cc(ccn2)-c2ccc(nc2)C1` [Compound 147], for which the figures for the IC50 in experiment [1] and in experiment [2] were 3.98e-07 M and 1.05e-06 M, respectively.

On to `NCCCOCC1CN2CCN1Cc1cccc(c1)Nc1cc(ccn1)-c1cnc(nc1)NCCCNC(=O)C2` (stereo not shown) [Compound 148], for which the “eEF2K_C_PThr56 pIC50” value in experiment [2] was below 5. Besides, in experiment [3], the IC50 is 9.33e-08 M and the VPS34_1microM_%ofcntrl is listed as 9.53%.

Turning to `CC(=O)NCCCOCC1CN2CCN1Cc1cccc(c1)Nc1cc(ccn1)-c1cnc(nc1)NCCCNC(=O)C2` (stereo not shown) [Compound 149], the IC50 was 6.31e-06 M in experiment [1] and above 1e-05 M in experiment [2].
